In patent publication US20080312255A1 (ASTRAZENECA AB, priority 2007, published 2008) one finds inhibition data, which are given here for 27 compounds.

The term inhibition denotes the change of the read-out against control, counted positive when it falls.

The target in the assay is S. aureus GyrB ATPase (Staphylococcus aureus, UniProt P0A0K8). Briefly: S. aureus GyrB ATPase inhibition (ammonium molybdate/malachite green phosphate detection). The assay is classed as biochemical. The conditions noted are these: compound concentration of 1 μM. On the procedure: S. aureus GyrB ATPase Inhibition Activity: Compounds may be tested for inhibition of S. aureus GyrB ATPase activity using an ammonium molybdate/malachite green-based phosphate detection assay (Lanzetta, P. A., L. J. Alvarez, P. S. Reinach, and O. A. Candia, 1979, 100: 95-97). Assays can be performed in multiwell plates in 30 μl reactions containing: 50 mM Hepes buffer pH 7.5, 75 mM ammonium acetate, 8.0 mM magnesium chloride, 0.5 mM ethylenediaminetetraacetic acid, 5% glycerol, 1.0 mM 1,4-Dithio-DL-threitol, 200 nM bovine serum albumin, 1.0 μg/ml sheared salmon sperm DNA, 250 pM E. coli GyrA, 250 pM S. aureus GyrB, 250 μM ATP, and compound in dimethylsulfoxide. Reactions can be quenched with […] of ammonium molybdate/malachite green detection reagent containing 1.2 mM malachite green hydrochloride, 8.5 mM ammonium molybdate tetrahydrate, and 1 M hydrochloric acid. Plates can be read in an absorbance plate reader at 650 nm and percent inhibition values can be calculated using dimethylsulfoxide (2%)-containing reactions as 0% inhibition and EDTA-containing ([…]) reactions as 100% inhibition controls. An IC50 measurement of compound potency for each compound can be determined from reactions performed in the presence of 10 different compound concentrations.
Chain of S. aureus GyrB ATPase (P0AES4 whole entry): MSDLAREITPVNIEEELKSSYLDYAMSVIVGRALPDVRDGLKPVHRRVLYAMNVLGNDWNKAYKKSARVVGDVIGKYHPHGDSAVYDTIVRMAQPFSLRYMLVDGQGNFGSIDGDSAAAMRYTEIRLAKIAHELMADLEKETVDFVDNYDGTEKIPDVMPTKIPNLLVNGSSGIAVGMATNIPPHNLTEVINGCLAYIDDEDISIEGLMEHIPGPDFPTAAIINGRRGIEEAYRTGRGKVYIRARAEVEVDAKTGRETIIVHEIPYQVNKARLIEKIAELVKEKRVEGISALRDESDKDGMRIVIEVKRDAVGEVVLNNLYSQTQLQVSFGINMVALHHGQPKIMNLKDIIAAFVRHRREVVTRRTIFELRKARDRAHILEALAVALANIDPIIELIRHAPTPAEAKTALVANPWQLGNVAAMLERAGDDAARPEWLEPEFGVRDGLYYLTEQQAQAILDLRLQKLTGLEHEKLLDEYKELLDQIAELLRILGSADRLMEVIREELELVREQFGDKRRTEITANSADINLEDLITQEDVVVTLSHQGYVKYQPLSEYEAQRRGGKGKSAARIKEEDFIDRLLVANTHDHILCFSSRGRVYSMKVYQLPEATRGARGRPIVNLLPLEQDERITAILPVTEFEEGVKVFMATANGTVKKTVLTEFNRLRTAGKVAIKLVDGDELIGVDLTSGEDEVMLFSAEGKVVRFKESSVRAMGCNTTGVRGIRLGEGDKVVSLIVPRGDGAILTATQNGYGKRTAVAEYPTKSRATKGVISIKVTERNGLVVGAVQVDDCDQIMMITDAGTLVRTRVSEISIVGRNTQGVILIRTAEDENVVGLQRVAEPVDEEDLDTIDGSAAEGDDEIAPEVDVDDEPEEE
Chain of S. aureus GyrB ATPase (P0A0K8 whole entry): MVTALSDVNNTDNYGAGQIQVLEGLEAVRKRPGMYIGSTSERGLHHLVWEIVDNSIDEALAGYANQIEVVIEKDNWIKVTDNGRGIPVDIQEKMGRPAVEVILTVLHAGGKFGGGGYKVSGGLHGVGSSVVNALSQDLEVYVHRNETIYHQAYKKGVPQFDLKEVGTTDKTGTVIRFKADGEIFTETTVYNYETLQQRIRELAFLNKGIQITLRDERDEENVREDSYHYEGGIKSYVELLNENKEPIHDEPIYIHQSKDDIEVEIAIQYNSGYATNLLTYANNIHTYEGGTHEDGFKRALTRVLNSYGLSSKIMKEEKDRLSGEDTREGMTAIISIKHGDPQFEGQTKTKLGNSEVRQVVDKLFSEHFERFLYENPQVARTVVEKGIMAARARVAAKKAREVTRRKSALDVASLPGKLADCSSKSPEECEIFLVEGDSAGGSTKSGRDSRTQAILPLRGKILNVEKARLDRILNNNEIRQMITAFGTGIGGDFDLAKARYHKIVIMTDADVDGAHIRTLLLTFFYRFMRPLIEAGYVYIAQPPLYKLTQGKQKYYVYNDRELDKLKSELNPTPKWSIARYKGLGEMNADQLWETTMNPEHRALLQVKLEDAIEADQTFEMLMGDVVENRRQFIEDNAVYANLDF
Compounds of the invention were tested in an assay substantially similar to the assay described above for measuring the inhibition of S. aureus GyrB ATPase. Percent inhibition of S. aureus GyrB ATPase at a compound concentration of 1 μM (unless otherwise noted) is disclosed in the following table: […]
On to `COCCn1ccnc1-c1nc(N2CC[C@@H](NC(=O)c3[nH]c(C)c(Cl)c3Cl)[C@@H](F)C2)sc1C(=O)OC` [Example 65], for which the inhibition at 1 µM turned out to be 98.3%. For the compound `CO[C@H]1CN(c2nc(-c3ncccc3F)c(C(=O)O)s2)CC[C@H]1NC(=O)c1[nH]c(C)c(Cl)c1Cl` [Example 114, 2-((3S,4R)-4-(3,4-dichloro-5-methyl-1H-pyrrole-2-carboxamido)-3-methoxypiperidin-1-yl)-4-(3-fluoropyridin-2-yl)thiazole-5-carboxylic acid], the inhibition at 1 µM was determined as 82.9%. Then `CCOC(=O)c1sc(N2CC[C@@H](NC(=O)c3[nH]c(C)c(Cl)c3Cl)[C@@H](OC)C2)nc1-c1nc(C)no1` [Example 84], with 103%; and `Cc1[nH]c(C(=O)N[C@@H]2CCN(c3nc(-c4cc(N(C)C)nc(N(C)C)n4)c(C(=O)O)s3)C[C@@H]2F)c(Cl)c1Cl` [Example 10, 4-[2,6-Bis(dimethylamino)pyrimidin-4-yl]-2-((3S,4R)-4-{[(3,4-dichloro-5-methyl-1H-pyrrol-2-yl)carbonyl]amino}-3-fluoropiperidin-1-yl)-1,3-thiazole-5-carboxylic acid], with 101%. Regarding `Cc1[nH]c(C(=O)N[C@@H]2CCN(c3nc(-c4nccn4C)c(C(=O)O)s3)C[C@@H]2F)c(Cl)c1Cl` [Example 39, 2-((3S,4R)-4-{[(3,4-Dichloro-5-methyl-1H-pyrrol-2-yl)carbonyl]amino}-3-fluoropiperidin-1-yl)-4-(1-methyl-1H-imidazol-2-yl)-1,3-thiazole-5-carboxylic acid], the inhibition at 1 µM turned out to be 101%. With `Cc1[nH]c(C(=O)N[C@@H]2CCN(c3nc(-c4cn(C)cn4)c(C(=O)O)s3)C[C@@H]2F)c(Cl)c1Cl` [Example 41, 2-((3S,4R)-4-{[(3,4-Dichloro-5-methyl-1H-pyrrol-2-yl)carbonyl]amino}-3-fluoropiperidin-1-yl)-4-(1-methyl-1H-imidazol-4-yl)-1,3-thiazole-5-carboxylic acid] the figure was 104%; with `Cc1[nH]c(C(=O)N[C@@H]2CCN(c3nc(-c4ccn[nH]4)c(C(=O)O)s3)C[C@@H]2F)c(Cl)c1Cl` [Example 24, 2-((3S,4R)-4-{[(3,4-Dichloro-5-methyl-1H-pyrrol-2-yl)carbonyl]amino}-3-fluoropiperidin-1-yl)-4-(1H-pyrazol-5-yl)-1,3-thiazole-5-carboxylic acid], 65.9%; with `Cc1cnc(-c2nc(N3CC[C@@H](NC(=O)c4[nH]c(C)c(Cl)c4Cl)[C@@H](F)C3)sc2C(=O)O)cn1` [Example 118, 2-((3S,4R)-4-(3,4-dichloro-5-methyl-1H-pyrrole-2-carboxamido)-3-fluoropiperidin-1-yl)-4-(5-methylpyrazin-2-yl)thiazole-5-carboxylic acid], 92.1%. Turning to `CCCO[C@H]1CN(c2nc(-c3ncnn3C)c(C(=O)O)s2)CC[C@H]1NC(=O)c1[nH]c(C)c(Cl)c1Cl` [Example 159, 2-[(3S,4R)-4-{[(3,4-dichloro-5-methyl-1H-pyrrol-2-yl)carbonyl]amino}-3-propoxypiperidin-1-yl]-4-(1-methyl-1H-1,2,4-triazol-5-yl)-1,3-thiazole-5-carboxylic acid], the inhibition at 1 µM turned out to be 31%.

Take `CO[C@H]1CN(c2nc(-c3cn(C)nn3)c(C(=O)O)s2)CC[C@H]1NC(=O)c1[nH]c(C)c(Cl)c1C#N` [Example 120, 2-((3S,4R)-4-(4-chloro-3-cyano-5-methyl-1H-pyrrole-2-carboxamido)-3-methoxypiperidin-1-yl)-4-(1-methyl-1H-1,2,3-triazol-4-yl)thiazole-5-carboxylic acid]: the inhibition at 1 µM was found to be 104%. Regarding `COC(=O)c1sc(N2CC[C@@H](NC(=O)c3cc(C#N)c(C)[nH]3)[C@@H](OC)C2)nc1-c1ncnn1C` [Example 68], the inhibition at 1 µM amounted to 97%. With `COc1ccnc(-c2nc(N3CC[C@@H](NC(=O)c4[nH]c(C)c(Cl)c4Cl)[C@@H](OC)C3)sc2C(=O)O)n1` [Example 42, 2-((3S,4R)-4-{[(3,4-Dichloro-5-methyl-1H-pyrrol-2-yl)carbonyl]amino}-3-methoxypiperidin-1-yl)-4-(4-methoxypyrimidin-2-yl)-1,3-thiazole-5-carboxylic acid] the figure was 99.9%; with `CCOC(=O)c1sc(N2CC[C@@H](NC(=O)c3[nH]c(C)c(Cl)c3Cl)[C@@H](OC)C2)nc1-c1ncccc1F` [Example 97, ethyl 2-((3S,4R)-4-(3,4-dichloro-5-methyl-1H-pyrrole-2-carboxamido)-3-methoxypiperidin-1-yl)-4-(3-fluoropyridin-2-yl)thiazole-5-carboxylate], 91.5%; with `COC(=O)c1sc(N2CC[C@@H](NC(=O)c3[nH]c(C)c(Cl)c3Cl)[C@@H](OC)C2)nc1-c1cccc(OC)n1` [Example 94, methyl 2-((3S,4R)-4-(3,4-dichloro-5-methyl-1H-pyrrole-2-carboxamido)-3-methoxypiperidin-1-yl)-4-(6-methoxypyridin-2-yl)thiazole-5-carboxylate], 106%. As for `CCOC(=O)c1sc(N2CC[C@@H](NC(=O)c3[nH]c(C)c(Cl)c3Cl)[C@@H](F)C2)nc1-c1nc2ccccc2s1` [Example 56], the inhibition at 1 µM came out at 93.9%. Then `Cc1[nH]c(C(=O)N[C@@H]2CCN(c3nc(-c4ccccn4)c(C(=O)O)s3)C[C@@H]2F)c(Cl)c1Cl` [Example 8, 2-((3S,4R)-4-{[(3,4-Dichloro-5-methyl-1H-pyrrol-2-yl)carbonyl]amino}-3-fluoropiperidin-1-yl)-4-pyridin-2-yl-1,3-thiazole-5-carboxylic acid], with 106%; and `COCCn1ccnc1-c1nc(N2CC[C@@H](NC(=O)c3[nH]c(C)c(Cl)c3Cl)[C@@H](F)C2)sc1C(=O)O` [Example 26, 2-((3S,4R)-4-{[(3,4-Dichloro-5-methyl-1H-pyrrol-2-yl)carbonyl]amino}-3-fluoropiperidin-1-yl)-4-[1-(2-methoxyethyl)-1H-imidazol-2-yl]-1,3-thiazole-5-carboxylic acid], with 97.4%. Then `CCOC(=O)c1sc(N2CC[C@@H](NC(=O)c3[nH]c(C)c(Cl)c3Cl)[C@@H](F)C2)nc1-c1cc(OC)ccn1` [Example 98, Ethyl 2-((3S,4R)-4-(3,4-dichloro-5-methyl-1H-pyrrole-2-carboxamido)-3-fluoropiperidin-1-yl)-4-(4-methoxypyridin-2-yl)thiazole-5-carboxylate], with 84.4%. Take `CCOC(=O)c1sc(N2CC[C@@H](NC(=O)c3[nH]c(C)c(Cl)c3Cl)[C@@H](F)C2)nc1-c1ncccn1` [Example 45]: the inhibition at 1 µM was 100%.

Take `CNc1nc(-c2nc(N3CC[C@@H](NC(=O)c4[nH]c(C)c(Cl)c4Cl)[C@@H](OC)C3)sc2C(=O)O)cs1` [Example 34, 2-((3S,4R)-4-{[(3,4-Dichloro-5-methyl-1H-pyrrol-2-yl)carbonyl]amino}-3-methoxypiperidin-1-yl)-2′-(methylamino)-4,4′-bi-1,3-thiazole-5-carboxylic acid]: the inhibition at 1 µM came out at 99.6%. With `Cc1[nH]c(C(=O)N[C@@H]2CCN(c3nc(-c4ncnn4C)c(C(=O)O)s3)C[C@@H]2OCc2ccccc2)c(Cl)c1Cl` [Example 141, 2-[(3S,4R)-3-(benzyloxy)-4-{[(3,4-dichloro-5-methyl-1H-pyrrol-2-yl)carbonyl]amino}piperidin-1-yl]-4-(1-methyl-1H-1,2,4-triazol-5-yl)-1,3-thiazole-5-carboxylic acid] the figure was 116%; with `COCCn1ccnc1-c1nc(N2CC[C@@H](NC(=O)c3[nH]c(C)c(Cl)c3C#N)[C@@H](OCc3ccccc3)C2)sc1C(=O)O` [Example 153], 98.6%.

Regarding `CO[C@H]1CN(c2nc(-c3ccncn3)c(C(=O)O)s2)CC[C@H]1NC(=O)c1[nH]c(C)c(Cl)c1Cl` [Example 2, 2-((3S,4R)-4-{[(3,4-Dichloro-5-methyl-1H-pyrrol-2-yl)carbonyl]amino}-3-methoxypiperidin-1-yl)-4-pyrimidin-4-yl-1,3-thiazole-5-carboxylic acid], the inhibition at 1 µM is 101%.

Regarding `CO[C@H]1CN(c2nc(-c3nc4ccccc4s3)c(C(=O)O)s2)CC[C@H]1NC(=O)c1[nH]c(C)c(Cl)c1Cl` [Example 13, 4-(1,3-Benzothiazol-2-yl)-2-((3S,4R)-4-{[(3,4-dichloro-5-methyl-1H-pyrrol-2-yl)carbonyl]amino}-3-methoxypiperidin-1-yl)-1,3-thiazole-5-carboxylic acid], the inhibition at 1 µM is 101%. As to `COC(=O)c1sc(N2CC[C@@H](NC(=O)c3[nH]c(C)c(Cl)c3Cl)[C@@H](F)C2)nc1-c1csc(N)n1` [Example 74], the inhibition at 1 µM came out at 100%. Regarding `COC(=O)c1sc(N2CC[C@@H](NC(=O)c3[nH]c(C)c(Cl)c3Cl)[C@@H](OC)C2)nc1-c1nc(C)c(C)n1C` [Example 70], the inhibition at 1 µM came out at 99.5%. Then `CO[C@H]1CN(c2nc(-c3cnc(C)cn3)c(C(=O)O)s2)CC[C@H]1NC(=O)c1[nH]c(C)c(Cl)c1Cl` [Example 113, 2-((3S,4R)-4-(3,4-dichloro-5-methyl-1H-pyrrole-2-carboxamido)-3-methoxypiperidin-1-yl)-4-(5-methylpyrazin-2-yl)thiazole-5-carboxylic acid], with 92.9%.
